PubChem BioAssay AID1963978 (Molecular Pharmacology Branch, DTP, NCI, 2024)

Tested on: 616215-338-R-J1-PDC spheroids with HUVEC/MSC, viability
Experiment: Anticancer human tumor 616215-338-R-J1-PDC patient-derived colon adenocarcinoma cell line growth inhibition [PI3K]
Conditions: for IC50: curve of first compound; for viability, T/C: stronger effect = lower value; active = viability on the fitted dose curve at most 10% of control; inactive = the rest
In short: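 Agents were dosed from a top concentration near clinical Cmax (otherwise 10 microM) in half-log decrements, alone or combined with PI3K inhibitors. The spheroids contain tumor cells plus endothelial (HUVEC) and MSC stroma; viability is measured.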

[1] = second compound 0.0316 µM, first compound 0.000316 µM
[2] = second compound 0.0316 µM, first compound 0.001 µM
[3] = second compound 0.0316 µM, first compound 0.00316 µM
[4] = second compound 0.0316 µM, first compound 0.01 µM
[5] = second compound 0.0316 µM, first compound 0.0316 µM
[6] = second compound 0.0316 µM, first compound 0.1 µM
[7] = second compound 0.1 µM, first compound 0.000316 µM
[8] = second compound 0.1 µM, first compound 0.001 µM
[9] = second compound 0.1 µM, first compound 0.00316 µM
[10] = second compound 0.1 µM, first compound 0.01 µM
[11] = second compound 0.1 µM, first compound 0.0316 µM
[12] = second compound 0.1 µM, first compound 0.1 µM
[13] = second compound 0.316 µM, first compound 0.000316 µM
[14] = second compound 0.316 µM, first compound 0.001 µM
[15] = second compound 0.316 µM, first compound 0.00316 µM
[16] = second compound 0.316 µM, first compound 0.01 µM
[17] = second compound 0.316 µM, first compound 0.0316 µM
[18] = second compound 0.316 µM, first compound 0.1 µM
[19] = second compound 1 µM, first compound 0.000316 µM
[20] = second compound 1 µM, first compound 0.001 µM
[21] = second compound 1 µM, first compound 0.00316 µM
[22] = second compound 1 µM, first compound 0.01 µM
[23] = second compound 1 µM, first compound 0.0316 µM
[24] = second compound 1 µM, first compound 0.1 µM
[25] = second compound 3.16 µM, first compound 0.000316 µM
[26] = second compound 3.16 µM, first compound 0.001 µM
[27] = second compound 3.16 µM, first compound 0.00316 µM
[28] = second compound 3.16 µM, first compound 0.01 µM
[29] = second compound 3.16 µM, first compound 0.0316 µM
[30] = second compound 3.16 µM, first compound 0.1 µM
[31] = second compound 10 µM, first compound 0.000316 µM
[32] = second compound 10 µM, first compound 0.001 µM
[33] = second compound 10 µM, first compound 0.00316 µM
[34] = second compound 10 µM, first compound 0.01 µM
[35] = second compound 10 µM, first compound 0.0316 µM
[36] = second compound 10 µM, first compound 0.1 µM
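Also: spheroids exposed to agents for seven days before the viability read.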

CC(=O)c1c(C)c2cnc(Nc3ccc(N4CCNCC4)cn3)nc2n(C2CCCC2)c1=O + Cc1nc(NC(=O)N2CCCC2C(N)=O)sc1-c1ccnc(C(C)(C)C(F)(F)F)c1
> 100 nM: IC50 (second compound 0.0316 µM) | IC50 (second compound 0.1 µM) | IC50 (second compound 0.316 µM) | IC50 (second compound 1 µM) | IC50 (second compound 3.16 µM) | IC50 (second compound 10 µM)
inactive: viability, T/C [1] 97.4% | viability, T/C [2] 96.8% | viability, T/C [3] 102% | viability, T/C [4] 110% | viability, T/C [5] 98% | viability, T/C [6] 113% | viability, T/C [7] 102% | viability, T/C [8] 95.7% | viability, T/C [9] 105% | viability, T/C [10] 87.9% | viability, T/C [11] 104% | viability, T/C [12] 111% | viability, T/C [13] 109% | viability, T/C [14] 97.3% | viability, T/C [15] 88.1% | viability, T/C [16] 99.9% | viability, T/C [17] 104% | viability, T/C [18] 108% | viability, T/C [19] 111% | viability, T/C [20] 108% | viability, T/C [21] 97.2% | viability, T/C [22] 100% | viability, T/C [23] 103% | viability, T/C [24] 91.7% | viability, T/C [25] 91.8% | viability, T/C [26] 95.6% | viability, T/C [27] 90.5% | viability, T/C [28] 98.4% | viability, T/C [29] 105% | viability, T/C [30] 101% | viability, T/C [31] 97.5% | viability, T/C [32] 93% | viability, T/C [33] 90.5% | viability, T/C [34] 93% | viability, T/C [35] 91% | viability, T/C [36] 97%

CC(C)n1nc(-c2ccc3oc(N)nc3c2)c2c(N)ncnc21 + Cc1nc(NC(=O)N2CCCC2C(N)=O)sc1-c1ccnc(C(C)(C)C(F)(F)F)c1
inactive: viability, T/C [1] 100% | viability, T/C [2] 88.7% | viability, T/C [3] 93.9% | viability, T/C [4] 97.2% | viability, T/C [5] 105% | viability, T/C [6] 93.2% | viability, T/C [7] 98.5% | viability, T/C [8] 106% | viability, T/C [9] 96.8% | viability, T/C [10] 90.8% | viability, T/C [11] 114% | viability, T/C [12] 87.1% | viability, T/C [13] 91.2% | viability, T/C [14] 91.2% | viability, T/C [15] 91.4% | viability, T/C [16] 96.2% | viability, T/C [17] 111% | viability, T/C [18] 82.1% | viability, T/C [19] 102% | viability, T/C [20] 100% | viability, T/C [21] 102% | viability, T/C [22] 99.5% | viability, T/C [23] 106% | viability, T/C [24] 79.1% | viability, T/C [25] 99.7% | viability, T/C [26] 102% | viability, T/C [27] 91% | viability, T/C [28] 95.4% | viability, T/C [29] 83.8% | viability, T/C [30] 56.7% | viability, T/C [31] 94.4% | viability, T/C [32] 85.9% | viability, T/C [33] 86.2% | viability, T/C [34] 80.2% | viability, T/C [35] 56.7% | viability, T/C [36] 41.4%
53.2 nM: IC50 (second compound 10 µM)
> 100 nM: IC50 (second compound 0.0316 µM) | IC50 (second compound 0.1 µM) | IC50 (second compound 0.316 µM) | IC50 (second compound 1 µM) | IC50 (second compound 3.16 µM)

CCCS(=O)(=O)Nc1ccc(F)c(C(=O)c2c[nH]c3ncc(-c4ccc(Cl)cc4)cc23)c1F + Cc1nc(NC(=O)N2CCCC2C(N)=O)sc1-c1ccnc(C(C)(C)C(F)(F)F)c1
3710 nM: IC50 (second compound 3.16 µM)
2990 nM: IC50 (second compound 10 µM)
inactive: viability, T/C [5] 108% | viability, T/C [6] 94% | viability, T/C (second compound 0.0316 µM, first compound 0.316 µM) 94.7% | viability, T/C (second compound 0.0316 µM, first compound 1 µM) 81.2% | viability, T/C (second compound 0.0316 µM, first compound 3.16 µM) 66.6% | viability, T/C [11] 90.6% | viability, T/C [12] 92.5% | viability, T/C (second compound 0.1 µM, first compound 0.316 µM) 84.8% | viability, T/C (second compound 0.1 µM, first compound 1 µM) 91.2% | viability, T/C (second compound 0.1 µM, first compound 3.16 µM) 66.2% | viability, T/C [17] 95.3% | viability, T/C [18] 90.1% | viability, T/C (second compound 0.316 µM, first compound 0.316 µM) 90.3% | viability, T/C (second compound 0.316 µM, first compound 1 µM) 85% | viability, T/C (second compound 0.316 µM, first compound 3.16 µM) 65.5% | viability, T/C [23] 95.9% | viability, T/C [24] 92.2% | viability, T/C (second compound 1 µM, first compound 0.316 µM) 93.5% | viability, T/C (second compound 1 µM, first compound 1 µM) 86.1% | viability, T/C (second compound 1 µM, first compound 3.16 µM) 69.9% | viability, T/C [29] 96.8% | viability, T/C [30] 86.8% | viability, T/C (second compound 3.16 µM, first compound 0.316 µM) 91.9% | viability, T/C (second compound 3.16 µM, first compound 1 µM) 82.3% | viability, T/C (second compound 3.16 µM, first compound 3.16 µM) 57% | viability, T/C [35] 91.7% | viability, T/C [36] 86.4% | viability, T/C (second compound 10 µM, first compound 0.316 µM) 87.4% | viability, T/C (second compound 10 µM, first compound 1 µM) 87.8% | viability, T/C (second compound 10 µM, first compound 3.16 µM) 48%
4510 nM: IC50 (second compound 1 µM)
4280 nM: IC50 (second compound 0.1 µM)
active: viability, T/C (second compound 0.0316 µM, first compound 10 µM) 3.55% | viability, T/C (second compound 0.1 µM, first compound 10 µM) 4.03% | viability, T/C (second compound 0.316 µM, first compound 10 µM) 5.89% | viability, T/C (second compound 1 µM, first compound 10 µM) 6.45% | viability, T/C (second compound 3.16 µM, first compound 10 µM) 5.97% | viability, T/C (second compound 10 µM, first compound 10 µM) 4.82%
4250 nM: IC50 (second compound 0.316 µM)
4020 nM: IC50 (second compound 0.0316 µM)
